Assay results as given in patent US8258098B2, “Antitumoral treatments” (Pharma Mar, S.A., priority 2006, dated 2012).

Experiments:
[1] = system: K562 cell line; experiment: MTS assay with CalcuSyn combination index, leukemia; format: cell-based; details: Homo sapiens, K562, read-out: IC50 (Molar)
Description: (§1) These cell lines were cultured in RPMI1640 medium with 10% FBS and 2 mM L-Glutamine. Each cell line was plated in a 96 well plates at 20,000 cell per well.
(§2) Each serial dilution was paired with 4 different concentrations of Idarubicin.
(§3) The plates were incubated for 3 days at 37° C. and 5% CO2. The plates were read using the Promega MTS assay system with MTS being metabolized by living cells turning into formazan which is […] at 490 nm wavelength. This is an indirect measure of cell viability. These were analyzed using the Softmax Pro program which determines cell viability based percent of control wells. This IC50 data was then transferred into the CalcuSyn program for combination index analysis. CalcuSyn compares IC50 the values of the drugs alone with that of the drugs in combination using an algorithm to determine a combination index.

[2] = system: MOLT4 cell line; experiment: as above; format: cell-based; details: Homo sapiens, MOLT-4, read-out: IC50 (Molar)
Description: as §1, §2, §3

IC50 [1]: 63.3 nM
IC50 [2]: 0.05 nM
SMILES: CC(=O)[C@]1(O)Cc2c(O)c3c(c(O)c2[C@@H](O[C@H]2C[C@H](N)[C@H](O)[C@H](C)O2)C1)C(=O)c1ccccc1C3=O [Idarubicin]
